# Calls of active or inactive are those of the source. The calls are words filed in the database; no cut-off is given here.
# Columns and labels:
# BXPC-3 = assay: Cytotoxicity against human BxPC3 cells after 72 hrs by MTT assay; type: functional; conditions: BXPC-3, 72 h
# Mus musculus [1] = assay: Toxicity in athymic nu/nu Harlan mouse xenografted with human SK-MEL-2 cells assessed as adverse reactions at 20 mg/kg, iv administered Q3D for 10 days relative to control; type: organism-based; parameters: dose 20 mg/kg, route intravenous; conditions: in vivo, 240 h
# EKVX = assay: Cytotoxicity against human EKVX cells after 48 hrs by SRB assay; type: functional
# HCT-15 = assay: Cytotoxicity against human HCT15 cells after 48 hrs by SRB assay; type: functional; conditions: HCT-15, 48 h
# COLO 205 = assay: Antitumor activity against human COLO205 cells xenografted in athymic nu/nu Harlan mouse assessed as tumor growth inhibition at 10 mg/kg, iv administered Q2D for 10 days relative to control; type: functional, organism-based; parameters: dose 10 mg/kg
# [2] = Plasma concentration in CD1 mouse at 18 mg/kg, iv administered as single dose measured after 30 mins; type: ADME, organism-based; parameters: dose 18 mg/kg, route intravenous
# A498 = assay: Cytotoxicity against human A498 cells after 48 hrs by SRB assay; type: functional; conditions: A498, 48 h
# SF-295 = assay: Cytotoxicity against human SF295 cells after 48 hrs by SRB assay; type: functional; conditions: SF-295, 48 h, read-out: pGI50 (converted)
# SF-539 = assay: Cytotoxicity against human SF539 cells after 48 hrs by SRB assay; type: functional; conditions: SF-539, 48 h
# BT-549 = assay: Cytotoxicity against human BT549 cells after 48 hrs by SRB assay; type: functional; conditions: BT-549, 48 h
# PC-3 = assay: Cytotoxicity against human PC3 cells after 48 hrs by SRB assay; type: functional; conditions: PC-3, 48 h
# SW-620 = assay: Cytotoxicity against human SW620 cells after 48 hrs by SRB assay; type: functional; conditions: SW-620, 48 h
# RXF 393 = assay: Cytotoxicity against human RXF393 cells after 48 hrs by SRB assay; type: functional; conditions: RXF 393, 48 h
# Mus musculus [3] = assay: Toxicity in athymic nu/nu Harlan mouse xenografted with human SK-MEL-2 cells assessed as change in body weight at 10 mg/kg, iv administered Q2D for 10 days relative to control; type: organism-based; parameters: dose 10 mg/kg, route intravenous; conditions: in vivo, 240 h
# Malme-3M = assay: Cytotoxicity against human MALME-3M cells after 48 hrs by SRB assay; type: functional
# UACC-257 = assay: Cytotoxicity against human UACC257 cells after 48 hrs by SRB assay; type: functional; conditions: UACC-257, 48 h
# IGROV-1 = assay: Cytotoxicity against human IGROV1 cells after 48 hrs by SRB assay; type: functional; conditions: IGROV-1, 48 h
# HOP-92 = assay: Cytotoxicity against human HOP92 cells after 48 hrs by SRB assay; type: functional; conditions: HOP-92, 48 h
# Mus musculus [4] = assay: Toxicity in athymic nu/nu Harlan mouse xenografted with human SK-MEL-2 cells assessed as adverse reactions at 10 mg/kg, iv administered Q2D for 10 days relative to control; type: organism-based; parameters: dose 10 mg/kg, route intravenous; conditions: in vivo, 240 h
# SN12C = assay: Cytotoxicity against human SN12C cells after 48 hrs by SRB assay; type: functional
# MCF7 = assay: Cytotoxicity against human MCF7 cells after 48 hrs by SRB assay; type: functional; conditions: MCF7, 48 h
# Mus musculus [5] = assay: Toxicity in iv dosed CD1 mouse administered Q2D for 8 days; type: organism-based; conditions: mouse, in vivo, 192 h
# OVCAR-8 = assay: Cytotoxicity against human OVCAR8 cells after 48 hrs by SRB assay; type: functional; conditions: OVCAR-8, 48 h, read-out: pGI50 (converted)
# SK-MEL-2 [6] = assay: Cytotoxicity against human SK-MEL-2 cells after 48 hrs by SRB assay; type: functional; conditions: SK-MEL-2, 48 h
# SR = assay: Cytotoxicity against human SR cells after 48 hrs by SRB assay; type: functional
# K562 = assay: Cytotoxicity against human K562 cells after 48 hrs by SRB assay; type: functional; conditions: K562, 48 h
# SF-268 = assay: Cytotoxicity against human SF268 cells after 48 hrs by SRB assay; type: functional; conditions: SF-268, 48 h
# SK-OV-3 = assay: Cytotoxicity against human SKOV3 cells after 48 hrs by SRB assay; type: functional; conditions: SK-OV-3, 48 h
# HCT-116 = assay: Cytotoxicity against human HCT116 cells after 48 hrs by SRB assay; type: functional; conditions: HCT-116, 48 h
# TK-10 = assay: Cytotoxicity against human TK10 cells after 48 hrs by SRB assay; type: functional; conditions: TK-10, 48 h
# RPMI-8226 = assay: Cytotoxicity against human RPMI8226 cells after 48 hrs by SRB assay; type: functional; conditions: RPMI-8226, 48 h
# UACC-62 = assay: Cytotoxicity against human UACC62 cells after 48 hrs by SRB assay; type: functional; conditions: UACC-62, 48 h
# SK-MEL-5 = assay: Cytotoxicity against human SK-MEL-5 cells after 48 hrs by SRB assay; type: functional; conditions: SK-MEL-5, 48 h
# NCI-H23 = assay: Cytotoxicity against human NCI-H23 cells after 48 hrs by SRB assay; type: functional; conditions: NCI-H23, 48 h
# [7] = Cytotoxicity against human NCI-ADR-RES cells after 48 hrs by SRB assay; type: functional
# HT-29 = assay: Cytotoxicity against human HT-29 cells after 48 hrs by SRB assay; type: functional; conditions: HT-29, 48 h
# [8] = Cytotoxicity against human 786-O cells after 48 hrs by SRB assay; type: functional; conditions: 786-0, 48 h
# [9] = Plasma concentration in CD1 mouse at 18 mg/kg, iv administered as single dose measured after 120 mins; type: ADME, organism-based; parameters: dose 18 mg/kg, route intravenous
# Mus musculus [10] = assay: Toxicity in athymic nu/nu Harlan mouse xenografted with human COLO205 cells assessed as mortality at 20 mg/kg, iv administered Q3D for 10 days relative to control; type: organism-based, COLO 205; parameters: dose 20 mg/kg, route intravenous; conditions: in vivo, 240 h
# A549 = assay: Cytotoxicity against human A549 cells after 72 hrs by MTT assay; type: functional; conditions: A549, 72 h
# [11] = Plasma concentration in CD1 mouse at 18 mg/kg, iv administered as single dose measured after 5 mins; type: ADME, organism-based; parameters: dose 18 mg/kg, route intravenous
# SK-MEL-2 [12] = assay: Antitumor activity against human SK-MEL-2 cells xenografted in athymic nu/nu Harlan mouse assessed as tumor growth inhibition at 10 mg/kg, iv administered Q2D for 10 days relative to control; type: functional, organism-based; parameters: dose 10 mg/kg
# [13] = Toxicity in ip dosed CD1 mouse administered as single dose; type: organism-based; conditions: in vivo
# OVCAR-3 = assay: Cytotoxicity against human OVCAR3 cells after 48 hrs by SRB assay; type: functional; conditions: OVCAR-3, 48 h
# SK-MEL-28 = assay: Cytotoxicity against human SK-MEL-28 cells after 48 hrs by SRB assay; type: functional; conditions: SK-MEL-28, 48 h
# MOLT-4 = assay: Cytotoxicity against human MOLT4 cells after 48 hrs by SRB assay; type: functional; conditions: MOLT-4, 48 h
# Mus musculus [14] = assay: Toxicity in athymic nu/nu Harlan mouse xenografted with human COLO205 cells assessed as adverse reactions at 20 mg/kg, iv administered Q3D for 10 days relative to control; type: organism-based, COLO 205; parameters: dose 20 mg/kg, route intravenous; conditions: in vivo, 240 h
# Hs-578T = assay: Cytotoxicity against human Hs578T cells after 48 hrs by SRB assay; type: functional
structure (smiles),measurement,setting,value
CO[C@@H]([C@@H]1Cc2cc3cc(O[C@H]4C[C@@H](O[C@H]5C[C@@H](O)[C@H](O)[C@@H](C)O5)[C@H](O)[C@@H](C)O4)c(C)c(O)c3c(O)c2C(=O)[C@H]1O[C@H]1C[C@@H](O[C@H]2C[C@@H](O[C@H]3C[C@H](O)[C@H](O)[C@@H](C)O3)[C@H](O)[C@@H](C)O2)[C@H](O)[C@@H](C)O1)[C@@H](O)C(C)=O,GI50,BXPC-3,300 nM
same,Activity,Mus musculus [1],Non-toxic
same,GI50,EKVX,85.1 nM
same,GI50,HCT-15,1050 nM
same,TGI,COLO 205,Active
same,concentration at 0.5 h,[2],1700 nM
same,GI50,A498,14.4 nM
same,GI50,SF-295,19.9 nM
same,GI50,SF-539,25.1 nM
same,GI50,BT-549,18.2 nM
same,GI50,PC-3,21.4 nM
same,GI50,SW-620,22.4 nM
same,GI50,RXF 393,29.5 nM
same,Activity,Mus musculus [3],Non-toxic
same,GI50,Malme-3M,19.5 nM
same,GI50,UACC-257,41.7 nM
same,GI50,IGROV-1; read-out: GI50,10 nM
same,GI50,IGROV-1; read-out: pGI50 (converted),10.5 nM
same,GI50,HOP-92,26.9 nM
same,Activity,Mus musculus [4],Non-toxic
same,GI50,SN12C,20.9 nM
same,GI50,MCF7,13.8 nM
same,MTD,Mus musculus [5],12 mg/kg
same,GI50,OVCAR-8,35.5 nM
same,GI50,SK-MEL-2 [6],27.5 nM
same,GI50,SR,12.9 nM
same,GI50,K562,17.4 nM
same,GI50,SF-268,22.4 nM
same,GI50,SK-OV-3,26.3 nM
same,GI50,HCT-116,16.6 nM
same,GI50,TK-10,52.5 nM
same,GI50,RPMI-8226,16.2 nM
same,GI50,UACC-62,12 nM
same,GI50,SK-MEL-5; read-out: GI50,16 nM
same,GI50,SK-MEL-5; read-out: pGI50 (converted),17 nM
same,GI50,NCI-H23,22.4 nM
same,GI50,[7],50100 nM
same,GI50,HT-29,21.4 nM
same,GI50,[8],32.4 nM
same,concentration at 2 h,[9],< 100 nM
same,Activity,Mus musculus [10],Non-toxic
same,GI50,A549,300 nM
same,concentration at 5 min,[11],28000 nM
same,TGI,SK-MEL-2 [12],Active
same,MTD,[13],200 mg/kg
same,GI50,OVCAR-3,19.5 nM
same,GI50,SK-MEL-28,18.6 nM
same,GI50,MOLT-4,19.9 nM
same,Activity,Mus musculus [14],Non-toxic
same,GI50,Hs-578T,16.2 nM
